Three compounds from US7250251B2, “Virion-based fusion assay” (The J. David Gladstone Institutes, priority 2002, dated 2007) can be followed below.

Test [1] relates to X4-tropic NL4-3 virions containing BlaM-Vpr fusing to SupT1 cells. The test can be described thus: Virion-based fusion assay (BlaM-Vpr/CCF2) in SupT1 cells, flow cytometry. Format: cell-based, HIV-1. The conditions noted are these: NL4-3, 2 hours, about 20% of cells shifted without inhibitor. How it is done:
(§1) No antibiotics were added to the culture media.
(§2) Light splitting was performed using a 505 SP filter.
After CCF2/AM loading, fusion was analyzed by multi-parameter flow cytometry using a violet laser for excitation of CCF2.

The test system of test [2] is CXCR4-tropic HIV-1 virions containing BlaM-Vpr fusing to primary PBMCs. Description: Virion-based fusion assay (BlaM-Vpr/CCF2) in PHA-stimulated PBMCs, flow cytometry. Format: cell-based. The settings on record: CXCR4-tropic virions 100 ng p24 Gag, 2 hours, 5.2% of cells fused without inhibitor. How it is done: as §1, §2
PBMCs were activated with phytohemagglutinin (PHA) (10 ug/ml) overnight and subsequently cultured in IL-2 (20 IU/ml) for 5 days. The cells were then either mock-infected (FIG. 5, panel a) or infected for 2 hours with 100 ng p24-Gag of X4-tropic NL4-3 virions containing the BlaM-Vpr chimeric viral protein (FIG. 5, panels b, c, d, and e) or 500 ng p24-Gag of R5-tropic […] virions containing the BlaM-Vpr chimeric viral protein (FIG. 5, panels f, g, h, and i) either in the absence of inhibitors (FIG. 5, panel b and f) or in the presence of AMD3100 (250 nM, FIG. 5, panel c and g), […] (250 nM, FIG. 5, panels d and h), or AZT (10 μM, FIG. 5, panels e and i). After CCF2/AM dye loading of the cells, the BlaM reaction was allowed to develop for 12 hours. Virion fusion was analyzed by multi-parameter flow cytometry.

In test [3] the test system is X4-tropic NL4-3 strain of HIV (BlaM-Vpr-containing virions) fusing to HeLa-CD4 cells. The settings on record: 250 nM added 1 hour prior to infection, NL4-3 200 ng p24-Gag, 2 hours, about 10% blue cells without inhibitor.
Experimental: The virion-based fusion assay was performed in three successive steps, including 1) incubation of target cells with virus particles; 2) loading of target cells with CCF2/AM dye, and 3) development and detection of the BlaM reaction. Once target cells were loaded with the CCF2 dye, the cells were maintained at room temperature to avoid export of CCF2. Since viral infections are performed at 37° C., the infection step was performed first, and then the cell cultures were subsequently loaded with the CCF2/AM dye. […]
The change in emission fluorescence of CCF2 following cleavage by the BlaM-Vpr chimera was monitored by flow cytometry using a 3 laser Vantage SE instrument (Becton Dickinson, Inc., San Jose, Calif.). […] Blue emission was detected using an HQ455/50 filter while green emission data was collected using an HQ545/90 BP filter. […] Data were collected using CellQuest and analyzed with FlowJo software (Treestar Inc., San Carlos, Calif.). […]
Cultures of HeLa-CD4 cells expressing endogenous CXCR4 receptors were either mock-infected or infected for 2 hours with BlaM-Vpr-containing virions (200 ng p24-Gag) corresponding to an X4-tropic NL4-3 strain of HIV or an R5-tropic 81A strain of HIV. […] After loading of the cells with the CCF2/AM dye, fusion was analyzed by fluorescence microscopy. […]
Test [4] deals with CCR5-tropic strain of HIV-1 (81A) containing BlaM-Vpr fusing to CCR5-Jurkat T cells. Description: Virion-based fusion assay (BlaM-Vpr/CCF2) in Jurkat T cells expressing CCR5. The class given is cell-based. The conditions noted are these: 250 nM preincubation, R5-tropic 81A virions. As for the experimental part:
as §1, §2
To investigate whether the BlaM-Vpr assay discriminates between productive and non-productive virion entry by fusion and endocytosis respectively, Jurkat T cells either expressing or not expression CCR5 were incubated with a CCR5-tropic strain of HIV-1 (81A) containing BlaM-Vpr (FIG. 3). […] These 81A virions were capable of fusion as indicated by the increase in blue fluorescence obtained when these virions were incubated with Jurkat T cells expressing CCR5 (FIG. 3, panel d, compare with mock infection control in FIG. 3, panel c).

`c1cc(CN2CCCNCCNCCCNCC2)ccc1CN1CCCNCCNCCCNCC1` [AMD3100]: the “shift to increased blue fluorescence induced by viral infection (virion fusion)” value in test [1] (250 nM pretreatment) is “almost completely blocked”. For the same compound, in test [2] (250 nM pretreatment), the “inhibition of shift to greater blue fluorescence (virion fusion)” value (“inhibition of shift” below) is given as “inhibited this change”. Besides, the “blue cells (virion fusion, CCF2 cleavage) in virally infected cells pretreated with inhibitor” value in test [3] was “essentially no blue cells were detected”.
On to `Cc1cn([C@H]2C[C@H](N=[N+]=[N-])[C@@H](CO)O2)c(=O)[nH]c1=O` [AZT], for which the “shift to increased blue fluorescence induced by viral infection (virion fusion)” value in test [1] (10 μM) is given as “did not impair the shift to greater blue fluorescence”. The “inhibition of shift” value in test [2] (10 μM pretreatment) was “produced no inhibitory effect”.
On to `Cc1ccc(-c2ccc3c(c2)C=C(C(=O)Nc2ccc(C[N+](C)(C)C4CCOCC4)cc2)CCC3)cc1.[Cl-]` [TAK-779], for which the “inhibition of shift” value in test [2] (250 nM pretreatment) was “produced no inhibitory effect”. The “shift to increased blue fluorescence (virion fusion)” value in test [4] is “no shift to increased blue fluorescence was observed”.
